Results from patent publication US10881107B2, “Antimicrobial compositions containing alkylpyrazines and their uses” (ROOMBIOTIC GMBH, priority 2015, dated 2021).

Experiment: antimicrobial activity test of alkyl pyrazine compounds or mixtures
Type: cell-based
Text: Several alkyl pyrazine compounds or mixtures thereof have been tested for their antimicrobial activity.

| Structure (SMILES) | Antimicrobial activity | Degree of antimicrobiai activity |
| --- | --- | --- |
| Cc1nc(C(C)C)c(C(C)C)nc1C(C)C [TS-73] | No | – |
| Cc1nccnc1CC(C)C [2-Isobutyl-3-methylpyrazine] | Yes | Strong |
| Cc1cnc(C)c(C)n1 [2,3,5-Trimethylpyrazine, reference compound] | No | – |
| Cc1nccnc1C [2,3-Dimethylpyrazine, reference compound] | Yes | Weak |
| CC(=O)c1cnccn1 [2-Acetylpyrazine, reference compound] | No | – |
| CC(C)Cc1cnccn1 [2-Isobutylpyrazine] | Yes | Strong |
| CC(C)c1cnccn1 [2-Isopropylpyrazine] | Yes | Strong |
| Cc1cnc(C)cn1 [2,5-Dimethylpyrazine, reference compound] | Yes | Weak |
| COc1nccnc1CC(C)C [2-Isobutyl-3-methoxypyrazine] | Yes | Strong |
